Test results reported in patent US20100330604A1, “QUANTIFICATION OF CHANGES IN THE DEGREES OF ORDER OF CELLULAR AND VIRAL MEMBRANES AND APPLICATIONS TO DIAGNOSIS, TREATMENT AND DRUG SCREENING” (priority 2007, published 2010).
Like-named read-outs stand apart in the source and are kept apart here.

Tests used:
platelets [1] = conditions: mean+/-SD
platelets [2] = conditions: all three patient groups; FIG. 19 panel B
platelets [3] = assay: Di-4-[…] fluorescence and Rf (675/575 nm) by flow cytometry on isolated platelets treated in vitro; format: cell-based
platelets [4] = assay: Spectral flow cytometry of di-4-[…] stained platelets stimulated by soluble agonists; format: cell-based
platelets [5] = assay: Di-4-ANEPPDHQ Rf by flow cytometry on platelets of hyperlipidemic patients before and after atorvastatin; format: in vivo, human; conditions: after 6-week atorvastatin 40 mg
platelets [6] = assay: Shear Induced Platelet activation (SIPA): high Rf platelet subpopulation; format: cell-based
cells = assay: Kinetics of apoptosis after addition of staurosoprine (di-4-[…] staining, flow cytometry); format: cell-based
From the text: Cells are detected, identified and segregated according to their size using forward scatter (FSC) and granularity (SSC). A total of 5000-10000 particles are typically analyzed. The excitation light is provided by a 488 nm laser, but could be achieved with lasers having wavelengths between 400 and 500 nm, among other possibilities. The emission fluorescence associated with liquid ordered domains is acquired between 575+/−25 nm, but the bandwidth could be narrower or wider, for example contained between 500 and 600 nm. The emission fluorescence associated with liquid disordered domains is acquired between 675+/−25 nm, but the bandwidth could be narrower or wider, contained for example between 650 and 750 nm.
Amplifications and gains associated with both fluorescences are adjusted on calibrated fluorescent beads or on a control cell population to obtain a ratio of fluorescence and to allow increases or decreases of the fluorescences and of the ratio. The ratio of fluorescence (Rf) is determined for each particle analysed by computing the ratio between the fluorescence intensity at 675 nm and the fluorescence intensity at 575 nm. By plotting FSC or SSC as a function of Rf for all particles on a logarithmic scale graph, the percentage of apoptotic cells can be determined as being the percentage of cells in the studied population having a Rf higher than a control population.

platelets [7] = assay: Di-4-[…] Rf by confocal fluorescent microscopy on platelets; format: cell-based; conditions: 10 mM, 37° C., 30 min; four donors; p=0.045
Protocol: Referring to FIG. 3, fluorescence intensities were measured by confocal fluorescent microscopy and flow cytometry on control platelets, cholesterol depleted platelets (10 mM Methyl-β-cyclodextrin, 37° C., 30 min) and cholesterol enriched platelets (2 mM Cholesterol-MCD complex, 37° C., 30 min).
A META confocal fluorescence microscope system (Zeiss, Toronto) was used to measure the intensities of fluorescence between 534 to 599 nm and between 650 to 684 nm allowing calculating the fluorescence ratio (Rf) prepared according as described hereinabove. Consistently with previous published data on neutrophils (Jin L et al. Biophys J; 2006), the Rf was higher after depletion compared to control platelets (measures on at least 5 platelets of four different donors; p=0.045) (Panel A).

P-selectin = assay: Expression of platelet activation marker P-selectin on washed platelets; format: cell-based; conditions: 10 mM, 30 minutes, room temperature; after 10 μM TRAP or 50 μM A23187
[8] = system: activated GpIIbIIIa receptors; assay: Activation of the activated GpIIbIIIa receptors on washed platelets; format: cell-based; conditions: 10 mM, 30 minutes, room temperature; after 10 μM TRAP or 50 μM A23187
[9] = 10 mM, room temperature, during incubation, N=3

COC(=O)[C@H](c1ccccc1Cl)N1CCc2sccc2C1 [clopidogrel]
ratio of fluorescence (Rf) after administration of clopidogrel (platelets [1]; Group A: clopidogrel 300 mg the day before + 75 mg the morning of the procedure, before 8.80+/-0.2, p<0.001): 8.68+/−0.22
ratio of fluorescence (Rf) after administration of clopidogrel (platelets [1]; Group B: clopidogrel 600 mg the morning of (2 hours before) the procedure, before 8.90+/-0.24, p=0.006): 8.77+/−0.27
ratio of fluorescence (Rf) after administration of clopidogrel (platelets [1]; Group C: clopidogrel 600 mg the day before and 600 mg the morning of the procedure, before 8.69+/-0.29, p=0.88): 8.69+/−0.21
platelet sub-population (Population 2), about 0.46% of platelets before treatment (platelets [2]): inhibited

CCCCC[C@@H](O)[C@H]1C(=O)O[C@H](C)[C@@H](O)/C=C/C=C/C=C/C=C/C=C(\C)[C@@H](O)C[C@H](O)C[C@H](O)C[C@H](O)C[C@H](O)C[C@H](O)C[C@@H]1O [filipin]
Rf measured by flow cytometry (platelets [3]; platelets, 30 minutes at 37° C., different concentrations, N=5): dose-dependency

thrombin
fluorescence at wavelengths larger than 660 nm compared to controls (platelets [4]; 0.5 U/mL, 30 minutes at 37 C): increased significantly
fluorescence between 530 and 585 nm compared to controls (platelets [4]; 0.5 U/mL, 30 minutes at 37 C): decreased significantly
fluorescence intensities between 515 and 600 nm (more ordered phases) upon activation (platelets [4]; Thrombin 0.5 U/ml, A23187 10 μM, Thrombin 0.5 U/ml/Convulxin 500 ng/ml, FIG. 15): decrease

CNc1ccc2oc(C[C@H]3O[C@@]4(CC[C@H]3C)O[C@H]([C@H](C)C(=O)c3ccc[nH]3)[C@H](C)C[C@H]4C)nc2c1C(=O)O [A23187]
fluorescence intensities between 515 and 600 nm (more ordered phases) upon activation (platelets [4]): decrease
Rf vs. non activated platelets incubated with TBS (platelets [3]; agonist: 10 μM TRAP or 50 μM A23187, p<0.05): significantly increased

CC(C)c1c(C(=O)Nc2ccccc2)c(-c2ccccc2)c(-c2ccc(F)cc2)n1CC[C@@H](O)C[C@@H](O)CC(=O)O [atorvastatin]
Rf (MLO in platelets) (platelets [5]; 20 hyperlipidemic patients, compared value 9.2+/-0.1, p=0.01): 8.8+/−0.1
effects of the cholesterol depletion on the MLO (Rf) (platelets [5]; compared value 12.8+/-0.5, p=0.09): 11.7+/−0.2

C=C1[C@@H](C)[C@H]2[C@H](Cc3ccccc3)NC(=O)[C@]23[C@H](OC(C)=O)/C=C/[C@@](C)(O)C(=O)[C@@H](C)C/C=C/[C@H]3[C@@H]1O [cytochalasin D]
generation of the high Rf platelet population during the shear treatment (platelets [6]): abrogated

CN[C@@H]1C[C@H]2O[C@@](C)([C@@H]1OC)n1c3ccccc3c3c4c(c5c6ccccc6n2c5c31)C(=O)NC4 [staurosoprine]
total proportion of intact cells after induction of apoptosis (cells; FIG. 17 panel G): decreases regularly
time at which the concentration in microparticles is maximal (cells; FIG. 17 panel H): 24 h

Methyl-β-cyclodextrin
Rf by confocal microscopy compared to control platelets (platelets [7]): higher
expression of platelet activation marker P-selectin (P-selectin): decreased
activation of the activated GpIIbIIIa receptors [8]: decreased
fluorescence intensity (575 and 675 nm) versus control undepleted platelets (platelets [3]; 10 mM, 37° C., 30 min, 10 μM di-4-ANEPPDHQ): shifted to lower values
Rf vs. control platelets (platelets [3]; 10 mM, 30 minutes, room temperature, p<0.05 to p<0.001): increased
time of cholesterol depletion after which the fluorescence ratio measurement is substantially stable (platelets [3]; 10 mM, room temperature): 30 min
fluorescence associated to the more ordered membrane (575 nm) (platelets [3]; [9]): decreased
fluorescence emitted at 675 nm (platelets [3]; [9]): remained stable
ratio of fluorescence (Rf) during the incubation (platelets [3]; 10 mM, room temperature, N=3): increased
fluorescence ratio (Rf) calculated from flow cytometry data (platelets [3]; cholesterol depletion 10 mM, 37° C., 30 min, N=5): increased
